Data taken from ChEMBL document CHEMBL1201862, “PubChem BioAssay data set” (2004).
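96-well plates; 48 h exposure; 5 concentrations. Endpoints by linear interpolation between flanking doses. Not reached: highest tested concentration assigned. GI50 = concentration required for 50% inhibition of growth.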 The source made the active and inactive calls. No stated cut-off is given here; in the data, active = GI50 up to about 1.1 µM and inactive = higher.

What was measured:
Experiment in all cases: NCI-60 cell line screen, 48 h
[1] = tested on: EKVX
[2] = tested on: SK-MEL-5
[3] = tested on: SK-OV-3
[4] = tested on: IGROV-1
[5] = tested on: SW-620
[6] = tested on: CAKI-1
[7] = tested on: SK-MEL-2
[8] = tested on: M14
[9] = tested on: UACC-257
[10] = tested on: 786-0
[11] = tested on: TK-10
[12] = tested on: HCT-15
[13] = tested on: NCI-H226
[14] = tested on: SNB-75
[15] = tested on: KM12
[16] = tested on: RPMI-8226
[17] = tested on: SF-295
[18] = tested on: RXF 393

Row | Structure (SMILES) | GI50 [1] | GI50 [2] | GI50 [3] | GI50 [4] | GI50 [5] | GI50 [6] | GI50 [7] | GI50 [8] | GI50 [9] | GI50 [10] | GI50 [11] | GI50 [12] [µM] | GI50 [13] | GI50 [14] | GI50 [15] | GI50 [16] | GI50 [17] | GI50 [18]
1 | N#C/C(c1nc2ccccc2[nH]1)=c1\s/c(=C/c2ccccc2)c(=O)n1-c1ccccc1 | > 100 µM (inactive) | 81.8 µM (inactive) | > 100 µM (inactive) | 2.9 µM (inactive) | > 100 µM (inactive) | > 100 µM (inactive) | > 100 µM (inactive) | > 100 µM (inactive) | > 100 µM (inactive) | > 100 µM (inactive) | > 100 µM (inactive) | > 100 | > 100 µM (inactive) | > 100 µM (inactive) | > 100 µM (inactive) | > 100 µM (inactive) |  | 
2 | CN(C)C(=S)/N=c1\ss/c(=N/c2ccccc2)n1C | > 100 µM (inactive) |  | 32.4 µM (inactive) | > 100 µM (inactive) | > 100 µM (inactive) | 36.2 µM (inactive) | > 100 µM (inactive) | > 100 µM (inactive) | > 100 µM (inactive) | 22.6 µM (inactive) | > 100 µM (inactive) | > 100 | > 100 µM (inactive) | 16.2 µM (inactive) | > 100 µM (inactive) | > 100 µM (inactive) | 75.9 µM (inactive) | 28.2 µM (inactive)
3 | COc1ccc(CNc2cc(OC)cc(OC)c2)cc1 | 60.8 µM (inactive) | 30.3 µM (inactive) | > 66.7 µM (inactive) | > 71.6 µM (inactive) | > 100 µM (inactive) |  | > 74 µM (inactive) | > 100 µM (inactive) | 64 µM (inactive) | > 37.6 µM (inactive) |  |  | 61.1 µM (inactive) | 35.3 µM (inactive) | 48.6 µM (inactive) | > 49.7 µM (inactive) |  | 43.8 µM (inactive)
4 | CCCCCCCCCCNC(=S)OCCCC | 25.8 µM (inactive) | 18 µM (inactive) | 30 µM (inactive) | 28.1 µM (inactive) | 19.2 µM (inactive) | 25.8 µM (inactive) | 12.8 µM (inactive) | 23.6 µM (inactive) | 23.4 µM (inactive) | 29.1 µM (inactive) | 14.7 µM (inactive) | 19.2 |  | 36.5 µM (inactive) | 14.7 µM (inactive) | 17.1 µM (inactive) | 45.4 µM (inactive) | 34.9 µM (inactive)
5 | CSC1(C)CC2C(CC1N1CCOCC1)C2(C)C (configuration not stated) |  | > 100 µM (inactive) | > 100 µM (inactive) | > 100 µM (inactive) |  |  | > 100 µM (inactive) | > 100 µM (inactive) | > 100 µM (inactive) | > 100 µM (inactive) | > 100 µM (inactive) | > 100 | > 100 µM (inactive) | > 100 µM (inactive) | > 100 µM (inactive) | > 100 µM (inactive) | > 100 µM (inactive) | 
6 | CC(=O)Oc1cc(C)c2c(c1OC(C)=O)CC1(O2)[C@@H](C)CCC2[C@@]3(C)CC[C@H](OC(C)=O)C(C)(C)C3CC[C@]21C (some centres not stated) | 3.69 µM (inactive) | 3.1 µM (inactive) | 5.36 µM (inactive) | 2.01 µM (inactive) | 2.82 µM (inactive) | 2.2 µM (inactive) |  | 6.08 µM (inactive) | 5.97 µM (inactive) | 2.28 µM (inactive) | 3.61 µM (inactive) | 3.53 | 11.4 µM (inactive) | 3.57 µM (inactive) | 5.13 µM (inactive) | 3.83 µM (inactive) | 5.01 µM (inactive) | 1.26 µM (inactive)
7 | CC1(C)C(=O)C(C)(C)C1=NN |  | > 100 µM (inactive) | > 100 µM (inactive) | > 100 µM (inactive) | > 100 µM (inactive) | > 100 µM (inactive) |  | > 100 µM (inactive) | > 100 µM (inactive) | > 100 µM (inactive) | > 100 µM (inactive) | > 100 | > 100 µM (inactive) | > 100 µM (inactive) | > 100 µM (inactive) | > 100 µM (inactive) | > 100 µM (inactive) | > 100 µM (inactive)
8 | O=c1c(O)cccn1C1OC(CO)C(O)C1O (configuration not stated) | > 100 µM (inactive) |  | > 100 µM (inactive) | > 100 µM (inactive) |  | > 100 µM (inactive) | > 100 µM (inactive) | > 100 µM (inactive) | > 100 µM (inactive) | > 100 µM (inactive) | > 100 µM (inactive) | > 100 | > 100 µM (inactive) | > 100 µM (inactive) | > 100 µM (inactive) | > 100 µM (inactive) |  | > 100 µM (inactive)
9 | COc1ccc(C[C@]23CCC(=O)N2CCc2cc(OC)c(O)cc23)cc1O | > 100 µM (inactive) | > 100 µM (inactive) |  | > 100 µM (inactive) | > 100 µM (inactive) | > 100 µM (inactive) |  | > 100 µM (inactive) | > 100 µM (inactive) | > 100 µM (inactive) | > 100 µM (inactive) | > 100 | > 100 µM (inactive) | > 100 µM (inactive) | > 100 µM (inactive) | > 100 µM (inactive) | > 100 µM (inactive) | > 100 µM (inactive)
